This is an account of results in ChEMBL document CHEMBL1255552, “Synthesis and SAR of 2-aryl-3-aminomethylquinolines as agonists of the bile acid receptor TGR5” (Bioorg Med Chem Lett, 2010).

The nature of data set [1]: Volume of distribution in mouse at 3 mg/kg, iv. It counts as ADME, organism-based. Further details: dose 3 mg/kg, route intravenous. As to conditions: in vivo.
A short description of data set [2]: Cmax in mouse at 30 mg/kg, po. It counts as ADME, organism-based. The note with it: in vivo. On the set-up: dose 30 mg/kg, route oral.
For data set [3], the system named is Mus musculus. The data set is described as follows: (§1) AUC in mouse at 30 mg/kg, po. It is filed as ADME, organism-based, Plasma. Further details: dose 30 mg/kg, route oral. As to conditions: in vivo.
Data set [4] in a line: Half life in mouse at 30 mg/kg, po. It counts as ADME, organism-based. On the set-up: dose 30 mg/kg, route oral. As to conditions: in vivo.
Data set [5] relates to Mus musculus. The data set is described as follows: (§2) Oral bioavailability in mouse at 30 mg/kg. It counts as ADME, organism-based. The note with it: in vivo.
Data set [6] in a line: Clearance in mouse at 3 mg/kg, iv. It counts as ADME, organism-based. Further details: dose 3 mg/kg, route intravenous. As to conditions: in vivo.
Data set [7] in a line: as §1. It counts as ADME, organism-based, Plasma. On the set-up: dose 30 mg/kg, route oral. As to conditions: plasma.
A short description of data set [8]: as §2. As to conditions: in vivo. It is filed as ADME, organism-based.

As usually defined, the Vd is a proportionality between amount in the body and measured concentration, not a real space. Read a low Vd as confinement near the circulation. For orientation: Cmax means the highest concentration seen after dosing. By AUC is commonly meant the area under the concentration-time curve, a measure of exposure. Read a high AUC as more exposure. As a reminder, the half-life is the time needed for the level to fall by half in the phase considered. High values mean slow loss, low ones fast loss. In the case of `Oc1ccc2cc(CNCCc3ccc(Br)cc3)c(-c3ccsc3)nc2c1`, in data set [1], the Vd is 2.4 L/kg. In data set [2], this compound displayed a Cmax of 370 ng/mL. The same compound showed an AUC in data set [3] of 400 ng·h/mL. For the same compound, in data set [4], the half-life was 4.4 h. Further, the F in data set [5] is reported as 9%.
One may read the clearance as the rate of elimination divided by the concentration. A higher clearance goes with efficient removal. As a reminder, the bioavailability is the share of a dose that reaches the circulation, judged against a reference dose that is usually intravenous. `COc1cc2nc(-c3ccsc3)c(CNCCc3ccc(Br)cc3)cc2cc1O` showed a clearance in data set [6] of 29 mL/min/kg. The Vd in data set [1] worked out at 1.4 L/kg. Besides, the Cmax in data set [2] is 500 ng/mL. In addition, the AUC in data set [7] came to 860 ng·h/mL. Also, the half-life in data set [4] was 7.7 h. The bioavailability in data set [8] worked out at 10%.
